Data published in US8148391B2 (Cephalon, Inc., priority 2006, dated 2012).
Like-named read-outs stand apart in the source and are kept apart here.

Columns and labels:
[1] = target: T1, baculovirus-expressed ALK (Homo sapiens, UniProt Q9UM73); assay: ALK Kinase Assay (ELISA-type, time-resolved fluorescence); assay type: biochemical
T1 construct: host or cells: baculovirus expression system
Summary of the method: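 Wells were coated with phospholipase C-γ at 10 μg/mL in Tris-buffered saline. Adding 30 ng/ml enzyme started the reaction, which ran at 37° C for 15 minutes before Eu-N1 PT66 antibody detection. Percent inhibition versus log10 concentration gave IC50 by variable-slope fit.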

[2] = target: T2, c-Met (cytoplasmic domain) (Homo sapiens, UniProt P08581); assay: c-Met Kinase Assay (same methods as for ALK, with modifications); assay type: biochemical
T2 construct: 10 ng/mL c-Met (cytoplasmic domain, Invitrogen Corporation #PV3143); purchased Invitrogen Corporation PV3143
Summary of the method: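 Steps: coat wells with PLC-γ (10 μg/mL, Tris-buffered saline); add 10 ng/mL c-Met cytoplasmic domain to initiate; incubate 15 min, 37° C; detect phosphoproduct via Eu-N1 PT66 antibody.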

[3] = 1 μM ATP (Km level), read-out: ALK Activity (ALK Kinase Inhibition, IC50)
[4] = 1 μM ATP (Km level), read-out: cMet Activity (c-Met Kinase Inhibition, IC50)
[5] = 1 μM ATP (Km level), 30 ng/ml ALK, 37° C., 15 minutes, read-out: ALK Activity (ALK kinase inhibition, IC50 class)
[6] = 1 μM ATP (Km level), 10 ng/mL c-Met, read-out: cMet Activity (c-Met kinase inhibition, IC50 class)
[7] = ALK kinase inhibition, 1 μM ATP, read-out: ALK Activity
[8] = c-Met kinase inhibition, 1 μM ATP, read-out: cMet Activity
[9] = ALK kinase inhibition, 1 μM ATP (Km level), read-out: ALK Activity
[10] = c-Met kinase inhibition, 1 μM ATP (Km level), read-out: cMet Activity

T1 sequence (Q9UM73 19-1620): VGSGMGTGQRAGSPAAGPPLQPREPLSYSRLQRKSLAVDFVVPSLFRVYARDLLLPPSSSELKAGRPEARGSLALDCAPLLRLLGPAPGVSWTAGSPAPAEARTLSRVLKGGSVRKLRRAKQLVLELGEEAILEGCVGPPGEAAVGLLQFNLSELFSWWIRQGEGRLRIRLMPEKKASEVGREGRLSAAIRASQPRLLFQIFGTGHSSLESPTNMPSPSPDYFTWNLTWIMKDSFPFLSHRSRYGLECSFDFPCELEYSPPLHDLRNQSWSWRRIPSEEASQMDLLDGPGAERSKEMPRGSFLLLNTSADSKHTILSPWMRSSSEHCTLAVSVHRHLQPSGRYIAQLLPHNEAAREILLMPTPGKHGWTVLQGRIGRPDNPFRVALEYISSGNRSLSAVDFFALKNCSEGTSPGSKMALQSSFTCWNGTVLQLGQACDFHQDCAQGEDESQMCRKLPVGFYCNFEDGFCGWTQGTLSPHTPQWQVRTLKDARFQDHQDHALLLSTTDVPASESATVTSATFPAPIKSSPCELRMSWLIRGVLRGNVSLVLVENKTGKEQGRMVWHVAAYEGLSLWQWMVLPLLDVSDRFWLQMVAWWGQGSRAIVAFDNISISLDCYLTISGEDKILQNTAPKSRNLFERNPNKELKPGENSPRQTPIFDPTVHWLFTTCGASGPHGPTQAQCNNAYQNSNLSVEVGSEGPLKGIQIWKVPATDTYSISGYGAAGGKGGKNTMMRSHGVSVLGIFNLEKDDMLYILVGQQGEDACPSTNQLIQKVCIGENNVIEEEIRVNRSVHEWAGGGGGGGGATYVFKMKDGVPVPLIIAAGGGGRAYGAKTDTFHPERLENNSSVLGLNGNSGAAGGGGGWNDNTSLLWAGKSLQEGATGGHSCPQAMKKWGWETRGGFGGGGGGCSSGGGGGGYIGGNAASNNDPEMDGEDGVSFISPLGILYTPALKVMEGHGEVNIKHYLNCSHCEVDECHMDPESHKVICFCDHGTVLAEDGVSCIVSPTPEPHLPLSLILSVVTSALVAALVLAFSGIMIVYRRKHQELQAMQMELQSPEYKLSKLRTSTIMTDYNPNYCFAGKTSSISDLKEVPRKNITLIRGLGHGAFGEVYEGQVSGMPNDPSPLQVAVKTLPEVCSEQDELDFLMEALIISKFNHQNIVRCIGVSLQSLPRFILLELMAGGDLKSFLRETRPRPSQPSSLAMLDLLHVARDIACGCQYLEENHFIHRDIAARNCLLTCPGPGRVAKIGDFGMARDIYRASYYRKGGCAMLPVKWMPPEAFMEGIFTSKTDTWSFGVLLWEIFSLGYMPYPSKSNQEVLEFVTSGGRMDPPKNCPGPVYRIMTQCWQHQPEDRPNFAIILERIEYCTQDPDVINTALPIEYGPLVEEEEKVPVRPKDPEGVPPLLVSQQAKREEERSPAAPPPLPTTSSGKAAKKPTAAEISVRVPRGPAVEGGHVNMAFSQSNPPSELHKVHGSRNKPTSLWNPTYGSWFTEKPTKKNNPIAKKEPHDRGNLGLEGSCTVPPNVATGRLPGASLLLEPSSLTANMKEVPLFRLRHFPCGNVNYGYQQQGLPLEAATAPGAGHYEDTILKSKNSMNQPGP
T2 sequence (P08581 956-1390 limits assumed): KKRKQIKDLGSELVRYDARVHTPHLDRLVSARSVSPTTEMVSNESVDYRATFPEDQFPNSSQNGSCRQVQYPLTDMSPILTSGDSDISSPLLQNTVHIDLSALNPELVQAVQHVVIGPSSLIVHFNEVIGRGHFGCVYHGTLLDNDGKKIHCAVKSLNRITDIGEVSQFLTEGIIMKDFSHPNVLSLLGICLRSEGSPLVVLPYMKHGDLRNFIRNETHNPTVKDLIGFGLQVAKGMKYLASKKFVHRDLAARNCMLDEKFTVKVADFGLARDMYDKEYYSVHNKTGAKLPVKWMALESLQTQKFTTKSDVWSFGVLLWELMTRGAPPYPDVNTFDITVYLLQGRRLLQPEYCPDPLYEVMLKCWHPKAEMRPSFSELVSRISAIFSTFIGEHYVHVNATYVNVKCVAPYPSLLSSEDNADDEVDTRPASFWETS

CCN1CC(=O)N(CC)c2cc(Nc3ncc(Cl)c(Nc4ccc(OC)cc4-n4cccn4)n3)c(OC)cc2C1 [Example 737, 8-[5-Chloro-4-(4-methoxy-2-pyrazol-1-yl-phenylamino)-pyrimidin-2-ylamino]-1,4-diethyl-7-methoxy-1,3,4,5-tetrahydro-benzo[e][1,4]diazepin-2-one]
IC50 [1, 3]: < 100 nM
IC50 [2, 4]: > 10000 nM

COCCN1CCc2ccc(Nc3ncc(Cl)c(N[C@H]4CC[C@@H](NS(C)(=O)=O)CC4)n3)cc2CC1 [Example 1381, cis-N-(4-{5-Chloro-2-[3-(2-methoxy-ethyl)-2,3,4,5-tetrahydro-1H-benzo[d]azepin-7-ylamino]-pyrimidin-4-ylamino}-cyclohexyl)-methanesulfonamide]
IC50 [1, 5]: 100 to 1000 nM
IC50 [2, 6]: 1000 to 10000 nM

Cc1cccc(C(N)=O)c1Nc1nc(Nc2ccc3c(c2)N(C(C)C)C(=O)CCC3)ncc1Cl [Example 1475, 2-[5-Chloro-2-(1-isopropyl-2-oxo-2,3,4,5-tetrahydro-1H-benzo[b]azepin-8-ylamino)-pyrimidin-4-ylamino]-3-methyl-benzamide]
IC50 [1, 7]: 100 to 1000 nM
IC50 [2, 8]: > 10000 nM

COc1cc2c(cc1Nc1ncc(Cl)c(Nc3ccc(N4CCOCC4)cc3OC)n1)CCN(CC(=O)N1CCCC1)CC2 [Example 1155, 2-{7-[5-Chloro-4-(2-methoxy-4-morpholin-4-yl-phenylamino)-pyrimidin-2-ylamino]-8-methoxy-1,2,4,5-tetrahydro-benzo[d]azepin-3-yl}-1-pyrrolidin-1-yl-ethanone]
IC50 [1, 5]: < 100 nM
IC50 [2, 6]: > 10000 nM

CN(C)C(=O)N1CCN(C)c2cc(Nc3ncc(Cl)c(N[C@@H]4CCCC[C@H]4NS(C)(=O)=O)n3)ccc2C1 [Example 481, 8-[5-Chloro-4-((1R,2R)-2-methanesulfonylamino-cyclohexylamino)-pyrimidin-2-ylamino]-1-methyl-1,2,3,5-tetrahydro-benzo[e][1,4]diazepine-4-carboxylic acid dimethylamide]
IC50 [1, 9]: < 100 nM
IC50 [2, 10]: 1000 to 10000 nM

CNC(=O)c1sccc1Nc1nc(Nc2ccc3c(c2)N(CCOC)C(=O)CCC3)ncc1Cl [Example 1478, 3-{5-Chloro-2-[1-(2-methoxy-ethyl)-2-oxo-2,3,4,5-tetrahydro-1H-benzo[b]azepin-8-ylamino]-pyrimidin-4-ylamino}-thiophene-2-carboxylic acid methylamide]
IC50 [1, 7]: 100 to 1000 nM
IC50 [2, 8]: < 100 nM

CNC(=O)c1ccc(N)cc1Nc1nc(Nc2ccc3c(c2)C(C)(C)CCC(=O)N3)ncc1Cl [Example 1239, 4-Amino-2-[5-chloro-2-(5,5-dimethyl-2-oxo-2,3,4,5-tetrahydro-1H-1-benzazepin-7-ylamino)-pyrimidin-4-ylamino]-N-methyl-benzamide]
IC50 [1, 5]: < 100 nM
IC50 [2, 6]: 1000 to 10000 nM

CCN1CCc2cc(Nc3ncc(Cl)c(N[C@@H]4CCCC[C@H]4NS(C)(=O)=O)n3)c(OC)cc2CC1=O [Example 251, N-{(1R,2R)-2-[5-Chloro-2-(3-ethyl-8-methoxy-2-oxo-2,3,4,5-tetrahydro-1H-benzo[d]azepin-7-ylamino)-pyrimidin-4-ylamino]-cyclohexyl}-methanesulfonamide]
IC50 [1, 9]: < 100 nM
IC50 [2, 10]: > 10000 nM

CCN([C@@H]1CCCC[C@H]1Nc1nc(Nc2cc3c(cc2OC)CCN(CCOC)CC3)ncc1Cl)S(C)(=O)=O [Example 1677, N-((1R,2R)-2-{5-Chloro-2-[8-methoxy-3-(2-methoxy-ethyl)-2,3,4,5-tetrahydro-1H-benzo[d]azepin-7-ylamino]-pyrimidin-4-ylamino}-cyclohexyl)-N-ethyl-methanesulfonamide]
IC50 [1, 7]: < 100 nM
IC50 [2, 8]: > 10000 nM

CCN1CCNc2cc(Nc3ncc(Cl)c(Nc4c(F)cccc4C(=O)NC)n3)ccc2C1=O [Example 1454, 2-[5-Chloro-2-(4-ethyl-5-oxo-2,3,4,5-tetrahydro-1H-benzo[e][1,4]diazepin-8-ylamino)-pyrimidin-4-ylamino]-3-fluoro-N-methyl-benzamide]
IC50 [1, 7]: 100 to 1000 nM
IC50 [2, 8]: < 100 nM

COc1c(Nc2ncc(Cl)c(N[C@@H]3CCCC[C@H]3NS(C)(=O)=O)n2)ccc2c1C1CCC(C2)N1 (stereo partly drawn) [Example 92, N-{(1R,2R)-2-[5-Chloro-2-(3-methoxy-12-aza-tricyclo[7.2.1.0*2,7*]dodeca-2(7),3,5-trien-4-ylamino)-pyrimidin-4-ylamino]-cyclohexyl}-methanesulfonamide]
IC50 [1, 9]: 1000 to 10000 nM
IC50 [2, 10]: > 10000 nM

COc1cc2c(cc1Nc1ncc(Cl)c(Nc3ccc(N4CCN(C)CC4)cc3OC)n1)CCN(CC(C)(F)F)CC2 [Example 781, 5-Chloro-N*2*-[3-(2,2-difluoro-propyl)-8-methoxy-2,3,4,5-tetrahydro-1H-benzo[d]azepin-7-yl]-N*4*-[2-methoxy-4-(4-methyl-piperazin-1-yl)-phenyl]-pyrimidine-2,4-diamine]
IC50 [1, 3]: < 100 nM
IC50 [2, 4]: > 10000 nM

CCN1CC2CC(C1)c1cc(Nc3ncc(Cl)c(Nc4ccccc4S(=O)(=O)NC)n3)ccc12 (stereo not shown) [Example 157, 2-[5-Chloro-2-(10-ethyl-10-aza-tricyclo[6.3.1.0*2,7*]dodeca-2,4,6-trien-4-ylamino)-pyrimidin-4-ylamino]-N-methyl-benzenesulfonamide]
IC50 [1, 9]: < 100 nM
IC50 [2, 10]: 1000 to 10000 nM

CCN1CCN(CC)c2cc(Nc3ncc(Cl)c(N[C@H]4[C@@H](C(N)=O)[C@@H]5C=C[C@H]4C5)n3)ccc2C1 [Example 720, (1S,2S,3R,4R)-3 [5-Chloro-2-(1,4-diethyl-2,3,4,5-tetrahydro-1H-1,4-benzodiazepin-8-ylamino)-pyrimidin-4ylamino]-bicyclo[2.2.1]hept-5-ene-2-carboxylic acid amide]
IC50 [1, 3]: < 100 nM
IC50 [2, 4]: 1000 to 10000 nM

CN1C(=O)OCCc2cc(Nc3ncc(Cl)c(Nc4ccccc4-c4nccn4C)n3)ccc21 [Example 1749, 2-{5-chloro-4-[2-(1-methyl-1H-imidazol-2-yl)-phenylamino]-pyrimidin-2-ylamino}-5-methyl-8,9-dihydro-5H-7-oxa-5-aza-benzocyclohepten-6-one]
IC50 [1, 7]: < 100 nM
IC50 [2, 8]: 100 to 1000 nM

CNC(=O)c1ccccc1Nc1nc(Nc2ccc3c(c2)CNC(=O)NC3)ncc1Cl [Example 227, 2-[5-Chloro-2-(3-oxo-2,3,4,5-tetrahydro-1H-benzo[e][1,3]diazepin-7-ylamino)-pyrimidin-4-ylamino]-N-methyl-benzamide]
IC50 [1, 9]: < 100 nM
IC50 [2, 10]: < 100 nM

CNC(=O)c1cccc(F)c1Nc1nc(Nc2ccc3c(c2)NC(=O)CN(CCC(F)(F)F)C3)ncc1Cl [Example 1861, 2-{5-Chloro-2-[2-oxo-4-(3,3,3-trifluoro-propyl)-2,3,4,5-tetrahydro-1H-benzo[e][1,4]diazepin-8-ylamino]-pyrimidin-4-ylamino}-3-fluoro-N-methyl-benzamide]
IC50 [1, 7]: 100 to 1000 nM
IC50 [2, 8]: < 100 nM

COCCN1CCc2ccc(Nc3ncc(Cl)c(Nc4ccc(N5CCOCC5)cc4OCCC#N)n3)cc2CC1 [Example 1689, 3-(2-{5-Chloro-2-[3-(2-methoxy-ethyl)-2,3,4,5-tetrahydro-1H-benzo[d]azepin-7-ylamino]-pyrimidin-4-ylamino}-5-morpholin-4-yl-phenoxy)-propionitrile]
IC50 [1, 7]: < 100 nM
IC50 [2, 8]: 1000 to 10000 nM

COc1c(Nc2ncc(Cl)c(N[C@H]3[C@@H](C(N)=O)[C@@H]4C=C[C@H]3C4)n2)ccc2c1CCC(NCC(F)(F)F)CC2 (stereo partly drawn) [Example 679, (1S,2S,3R,4R)-3-{5-Chloro-2-[1-methoxy-7-(2,2,2-trifluoro-ethylamino)-6,7,8,9-tetrahydro-5H-benzocyclohepten-2-ylamino]-pyrimidin-4-ylamino}-bicyclo[2.2.1]hept-5-ene-2-carboxylic acid amide]
IC50 [1, 3]: < 100 nM
IC50 [2, 4]: > 10000 nM

CC1(C)CCC(=O)Nc2ccc(Nc3ncc(Cl)c(NC4C5C=CC(C5)C4C(N)=O)n3)cc21 (stereo not drawn) [Example 394, (2-exo,3-exo)-3-[5-Chloro-2-(5,5-dimethyl-2-oxo-2,3,4,5-tetrahydro-1H-benzo[b]azepin-7-ylamino)-pyrimidin-4-ylamino]-bicyclo[2.2.1]hept-5-ene-2-carboxylic acid amide]
IC50 [1, 9]: < 100 nM
IC50 [2, 10]: 100 to 1000 nM

COCCN1CCc2ccc(Nc3ncc(Cl)c(Nc4ccc(N5CCN(C(C)C)CC5)c5c4C(=O)N(C)C5)n3)cc2CC1 [Example 950, 7-{5-Chloro-2-[3-(2-methoxy-ethyl)-2,3,4,5-tetrahydro-1H-3-benzazepin-7-ylamino]-pyrimidin-4-ylamino}-4-(4-isopropyl-piperazin-1-yl)-2-methyl-2,3-dihydro-isoindol-1-one]
IC50 [1, 3]: < 100 nM
IC50 [2, 4]: 100 to 1000 nM

CN1CCNCc2ccc(Nc3ncc(Cl)c(N[C@@H]4CCCC[C@H]4NS(C)(=O)=O)n3)cc21 [Example 475, N-{(1R,2R)-2-[5-Chloro-2-(1-methyl-2,3,4,5-tetrahydro-1H-benzo[e][1,4]diazepin-8-ylamino)-pyrimidin-4-ylamino]-cyclohexyl}-methanesulfonamide]
IC50 [1, 9]: < 100 nM
IC50 [2, 10]: 1000 to 10000 nM

CNC(=O)c1ccccc1Nc1nc(Nc2cc3c(cc2OC)CCN(CCOC)CC3)ncc1Cl [Example 241, 2-{5-Chloro-2-[8-methoxy-3-(2-methoxy-ethyl)-2,3,4,5-tetrahydro-1H-benzo[d]azepin-7-ylamino]-pyrimidin-4-ylamino}-N-methyl-benzamide]
IC50 [1, 9]: < 100 nM
IC50 [2, 10]: 100 to 1000 nM
